From patent publication US5173297A, “Bacteriocin from Lactococcus lactis subspecies lactis” (Quest International Flavors & Food Ingredients Company …, priority 1991, dated 1992)

Columns and labels:
Experiment in all cases: Spectrum of antimicrobial activity
Design in all cases: key: + = inhibition; - = no inhibition
Conditions in all cases: pure, titer 3200 AU/ml
L. plantarum 346 = format: cell-based, Lactobacillus plantarum
L. plantarum 355 = format: cell-based, Lactobacillus plantarum
L. casei 326 = format: cell-based, Lactobacillus casei
L. casei 842 = format: cell-based, Lactobacillus casei
L. brevis 329 = format: cell-based, Lactobacillus brevis
L. brevis 888 = format: cell-based, Lactobacillus brevis
L. fermentum 342 = format: cell-based, Lactobacillus fermentum
L. fermentum 701 = format: cell-based, Lactobacillus fermentum
P. acidilactici PAC 1.0 = format: cell-based, Pediococcus acidilactici
P. acidilactici A = format: cell-based, Pediococcus acidilactici
P. acidilactici B = format: cell-based, Pediococcus acidilactici
P. acidilactici C = format: cell-based, Pediococcus acidilactici
P. acidilactici D = format: cell-based, Pediococcus acidilactici
P. pentosaceus FBB63C = format: cell-based, Pediococcus pentosaceus
Protocol: Colonies appearing on the agar plates were screened for antibacterial activity against a selected indicator, which usually predicted a wide antibacterial spectrum. The indicator chosen was Pediococcus pentosaceus FBB63C (Gonzalez, C. F., and B. S. Kunka, Appl. Environ. Microbiol. 53:2534-2538 (1987) and U.S. Pat. No. 4,883,673 to Gonzalez. Antibacterial activity was determined by picking colonies to replicate agar plates containing 1.9% sodium beta-glycerophosphate as buffer and after appearance of colonies overlaying with indicator.
To ascertain if the antibacterial substance is secreted into liquid medium, the cultures were grown in MRS broth and cell free filtrates of turbid cultures were made and the filtrate posted on a seeded semisolid agar overlay of the indicator. Antibacterial activity was quantitated by assigning arbitrary units. One arbitrary unit (AU) was defined as 5 μl of the culture supernatant yielding a definite, clear zone of inhibition on the indicator lawn. The titer was expressed as the reciprocal of the highest dilution of supernatant showing inhibition.

L. monocytogenes 04 = format: cell-based, Listeria monocytogenes
L. monocytogenes 08 = format: cell-based, Listeria monocytogenes
L. monocytogenes 36 = format: cell-based, Listeria monocytogenes
L. monocytogenes 38 = format: cell-based, Listeria monocytogenes
L. monocytogenes 59 = format: cell-based, Listeria monocytogenes
L. monocytogenes 62 = format: cell-based, Listeria monocytogenes
L. monocytogenes 69 = format: cell-based, Listeria monocytogenes
S. mutans GS5 = format: cell-based, Streptococcus mutans
S. mutans V262 = format: cell-based, Streptococcus mutans
B. subtilis RM125 = format: cell-based, Bacillus subtilis
B. subtilis amylase^+ = format: cell-based, Bacillus subtilis
L. lactis LLA 1.0 = format: cell-based, Lactococcus lactis
L. lactis LLA 2.0 = format: cell-based, Lactococcus lactis

nisin [Nisin Pure]
inhibition of indicator strain L. plantarum 346 (L. plantarum 346): + | inhibition of indicator strain L. plantarum 355 (L. plantarum 355): + | inhibition of indicator strain L. casei 326 (L. casei 326): + | inhibition of indicator strain L. casei 842 (L. casei 842): + | inhibition of indicator strain L. brevis 329 (L. brevis 329): + | inhibition of indicator strain L. brevis 888 (L. brevis 888): + | inhibition of indicator strain L. fermentum 342 (L. fermentum 342): + | inhibition of indicator strain L. fermentum 701 (L. fermentum 701): + | inhibition of indicator strain P. acidilactici PAC 1.0 (P. acidilactici PAC 1.0): + | inhibition of indicator strain P. acidilactici A (P. acidilactici A): + | inhibition of indicator strain P. acidilactici B (P. acidilactici B): + | inhibition of indicator strain P. acidilactici C (P. acidilactici C): + | inhibition of indicator strain P. acidilactici D (P. acidilactici D): + | inhibition of indicator strain P. pentosaceus FBB63C (P. pentosaceus FBB63C): + | inhibition of indicator strain L. monocytogenes 04 (L. monocytogenes 04): + | inhibition of indicator strain L. monocytogenes 08 (L. monocytogenes 08): + | inhibition of indicator strain L. monocytogenes 36 (L. monocytogenes 36): + | inhibition of indicator strain L. monocytogenes 38 (L. monocytogenes 38): + | inhibition of indicator strain L. monocytogenes 59 (L. monocytogenes 59): + | inhibition of indicator strain L. monocytogenes 62 (L. monocytogenes 62): + | inhibition of indicator strain L. monocytogenes 69 (L. monocytogenes 69): + | inhibition of indicator strain S. mutans GS5 (S. mutans GS5): + | inhibition of indicator strain S. mutans V262 (S. mutans V262): - | inhibition of indicator strain B. subtilis RM125 (B. subtilis RM125): + | inhibition of indicator strain B. subtilis amylase^+ (B. subtilis amylase^+): + | inhibition of indicator strain L. lactis LLA 1.0 (L. lactis LLA 1.0): + | inhibition of indicator strain L. lactis LLA 2.0 (L. lactis LLA 2.0): +
